How the values were obtained:
[1] = target: T1, C-cell Ca^2+ receptor (Rattus norvegicus, UniProt P48442); assay type: cell-based; details: spermine 10 mM, neomycin B 5 mM
T1 sequence (P48442 20-1079): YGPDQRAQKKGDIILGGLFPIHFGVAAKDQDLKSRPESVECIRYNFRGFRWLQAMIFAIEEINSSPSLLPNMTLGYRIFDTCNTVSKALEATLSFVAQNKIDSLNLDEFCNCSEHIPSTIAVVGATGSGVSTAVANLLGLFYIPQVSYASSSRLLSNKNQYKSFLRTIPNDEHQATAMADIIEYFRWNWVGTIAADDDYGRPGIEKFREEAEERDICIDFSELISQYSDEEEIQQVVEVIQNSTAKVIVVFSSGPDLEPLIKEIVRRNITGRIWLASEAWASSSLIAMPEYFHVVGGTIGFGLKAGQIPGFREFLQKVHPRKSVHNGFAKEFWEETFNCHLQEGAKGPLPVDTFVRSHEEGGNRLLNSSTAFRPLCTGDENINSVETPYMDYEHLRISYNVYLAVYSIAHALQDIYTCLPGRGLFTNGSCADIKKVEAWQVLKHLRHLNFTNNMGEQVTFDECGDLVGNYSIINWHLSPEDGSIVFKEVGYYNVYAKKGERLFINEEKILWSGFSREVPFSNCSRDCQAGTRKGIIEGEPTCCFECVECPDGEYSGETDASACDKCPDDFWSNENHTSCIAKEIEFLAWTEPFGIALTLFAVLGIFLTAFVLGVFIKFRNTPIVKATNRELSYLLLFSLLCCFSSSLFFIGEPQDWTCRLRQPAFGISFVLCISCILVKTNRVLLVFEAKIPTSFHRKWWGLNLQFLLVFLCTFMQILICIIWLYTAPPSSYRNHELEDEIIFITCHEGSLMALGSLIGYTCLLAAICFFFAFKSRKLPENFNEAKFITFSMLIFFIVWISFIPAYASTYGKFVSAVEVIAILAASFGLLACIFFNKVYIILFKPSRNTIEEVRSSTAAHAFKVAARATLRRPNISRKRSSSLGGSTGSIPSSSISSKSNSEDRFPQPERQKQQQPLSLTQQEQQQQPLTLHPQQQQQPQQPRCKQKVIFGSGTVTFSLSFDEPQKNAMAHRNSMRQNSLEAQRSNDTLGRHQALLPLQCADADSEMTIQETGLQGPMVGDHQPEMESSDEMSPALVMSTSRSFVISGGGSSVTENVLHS

[2] = Net positive charge of the molecule; assay type: physicochemical; details: Table 1; effective charge at physiological pH
[3] = test system: human parathyroid cells; assay: PTH secretion from human parathyroid cells; assay type: cell-based; details: at concentrations that caused mobilization of intracellular Ca2+, Fig. 13

With `NC[C@@H]1O[C@H](O[C@H]2[C@@H](O)[C@H](O[C@@H]3[C@@H](O)[C@H](N)C[C@H](N)[C@H]3O[C@H]3O[C@H](CN)[C@@H](O)[C@H](O)[C@H]3N)O[C@@H]2CO)[C@H](N)[C@@H](O)[C@@H]1O` [neomycin B] as the molecule, how does the “effect on basal [Ca2+]i” value [1] read?
The value was “without effect on basal [Ca^2+]i”.

What about the “Net (+) Charge” value [2] of the same molecule?
The value was “+6”.

What about the “inhibition of PTH secretion” value [3] of the same molecule?
Its value is “inhibited PTH secretion from human parathyroid cells”.

From patent publication EP0637237B1, “CALCIUM RECEPTOR-ACTIVE MOLECULES” (BRIGHAM AND WOMEN'S HOSPITAL, INC., priority 1993, dated 1994)
